# Measurements reported in paper PMC9312958, “A Novel and Selective Dopamine Transporter Inhibitor, (S)-MK-26, Promotes Hippocampal Synaptic Plasticity and Restores Effort-Related Motivational Dysfunctions” (Biomolecules, 2022).
# Columns and labels:
# [1] = system: adult male Sprague Dawley rats; assay: FR5/chow feeding choice task; format: in vivo, rat
# Description: Pharmacological agents: (S)-MK-26 was obtained from the Lubec Laboratory (University of Vienna, Austria) and dissolved in dimethyl sulfoxide (DMSO) (10%), Tween 80 (15%), and 0.9% saline (75%). The DMSO/Tween 80/saline mixture was administered as the vehicle control. The dose range was selected as 3.75–45.0 mg/kg based on its DAT affinity and pilot studies. It was administered 30 min before testing. TBZ (9,10-dimethoxy3-(2-methylpropyl)-1,3,4,6,7, 11b hexahydrobenzo[a]quinolizin2-one) was obtained from Tocris Bioscience (Ellisville, MO) and was dissolved in DMSO (20%) and 0.9% saline (80%) and was titrated with 1.0 N HCl until the drug was dissolved at a pH of 4.0–4.5. The DMSO/saline solution with equal amounts of HCl was administered as the vehicle control. The selected dose was 1.0mg/kg based on the previous research from our laboratory. It was administered 120 min prior to testing.
# FR5/chow feeding choice task: A total of 8 adult male Sprague Dawley rats (Envigo Sprague Dawley, Indianapolis, IN, USA; weights 275–299 g upon arrival) were pair-housed in a colony maintained at 23 °C, with a 12 h light/dark cycle (lights on 07:00). Rats were food deprived to 85% of their free-feeding body weight with modest growth throughout the experiment and water was available ad libitum in their home cages. All the animal protocols were approved by the University of Connecticut Institutional Animal Care and Use Committee, and the experiments were completed according to National Institutes of Health guidelines.
# Behavioral sessions were conducted in operant chambers (28 × 23 × 23 cm^3; Med Associates, Fairfax, VT, USA) with 30 min sessions 5 days/week. Rats were initially trained to lever press on magazine training for 3 days, followed by an FR1 schedule for 3 days (high-carbohydrate 45-mg pellets, Bio-Serv, Frenchtown, NJ, USA), and then moved to the FR5 schedule. After 5 weeks of training on the FR5 schedule, lab chow was introduced as the concurrently available choice food (Laboratory Diet, 5P00 Prolab RMH 3000, Purina Mills, St. Louis, MO, USA; typically 15–20 g). At the end of each session, rats were immediately removed from the chambers. The number of lever pressing was recorded and the amount of consumed chow was calculated by weighing the remaining food, including spillage. Rats were trained on the FR5/chow feeding choice task for 5 weeks, after which drug testing began.
# To test the effects of (S)-MK-26 on FR5/Chow feeding choice task, trained rats were administered either with TBZ (1.0 mg/kg) or vehicle 120 min before testing, and (S)-MK-26 also with doses of 15.0, 30.0, 45.0 mg/kg or vehicle 30 min before testing, via intraperitoneal (IP) injections on drug testing days. A repeated-measures design was utilized where each rat received each drug treatment in a randomly varied order, once per week. The following five treatment combinations were given: TBZ vehicle + (S)-MK-26 vehicle; 1.0 mg/kg TBZ + (S)-MK-26 vehicle; 1.0 mg/kg TBZ + 15.0 mg/kg (S)-MK-26; 1.0 mg/kg TBZ + 30.0 mg/kg (S)-MK-26; 1.0 mg/kg TBZ + 45.0 mg/kg (S)-MK-26. Next, to see if the effects of lower doses, the following four treatment combinations were given in a repeated measure design: TBZ vehicle + (S)-MK-26 vehicle; 1.0 mg/kg TBZ + (S)-MK-26 vehicle; 1.0 mg/kg TBZ + 3.75 mg/kg (S)-MK-26; 1.0 mg/kg TBZ + 7.5 mg/kg (S)-MK-26.
# hNET [2] = molecular target: T1, hNET (Homo sapiens, UniProt P23975); assay: Uptake inhibition assay in HEK293 cells expressing hNET; format: cell-based
# T1 construct: expressed in transfected cells
# Description: Human embryonic kidney 293 cells (HEK293 cells) were cultivated in Dulbecco’s Modified Eagle Medium (DMEM), containing 10% heat-inactivated fetal calf serum (FCS; 100 mL/L), streptomycin (100 μg/100 mL) and penicillin ([…]). Geneticin (50 μg/mL) was added to select cells stably expressing the human isoforms of dopamine, norepinephrine and serotonin transporter (hDAT, hNET, and hSERT, respectively) as described earlier. Cell lines were maintained in culture in humidified atmosphere (37 °C, 5% CO2), and passaged when reached 80–90% confluency. Cells expressing the desired transporter were seeded the day before the experiment (40,000 cells per well) or two days before the experiments (20,000 cells per well) onto poly-D-lysine (PDL)-coated 96-well plates.
# Uptake inhibition experiments were carried out as reported previously. Ninety-six-well plates containing hDAT-, hNET- or hSERT-expressing cells were washed with Krebs-HEPES buffer (KHB; 25 mM HEPES, 120 mM NaCl, 5 mM KCl, 1.2 mM CaCl2, and 1.2 mM MgSO4 and 5 mM D-glucose, pH = 7.3). Cells were then preincubated with increasing concentrations of the compound diluted in KHB for 6 min. Following the pre-incubation of the cells with the compound, the tritiated substrate (hDAT: 0.15 μM [^3H]DA; hNET: 0.05 μM [^3H]MPP^+; hSERT: 0.1 μM [^3H]5-HT) was added to the wells. The uptake was terminated by removal of tritiated substrate and by washing the cells with ice-cold KHB after 1 min (for hDAT and hSERT) or 3 min (for hNET). Thereafter, 200 μL of Ultima Gold^TM XR scintillation cocktail (PerkinElmer, MA, USA) was added, the plates were shaken and the radioactivity accumulated into the cells determined in a Wal-lac 1450 MicroBeta TriLux Liquid Scintillation Counter & Lumi (GMI, Ramsey, MN, USA). Non- specific tritiated substrate uptake was measured in the presence of 100 μM cocaine (for hDAT and hNET) or 10 μM paroxetine (for hSERT), and subtracted from the data. Uptake in the presence of test drugs was normalized to the uptake in the presence of the vehicle.
# hSERT = molecular target: T2, hSERT (Homo sapiens, UniProt P31645); assay: hSERT radioligand binding assay (CHO cells, [3H]imipramine)
# T2 construct: expressed in transfected cells
# Description: (§1) Binding affinity to the hDAT, hNET and hSERT expressed in CHO cells was evaluated in in vitro radioligand binding assays. Binding assays were conducted according to the standard and validated protocols under conditions defined by the contractor (Eurofins Cerep SA, Celle-’Evescault, France; study number 100054410). Antagonist radioligand assays were conducted for the human norepinephrine, the human dopamine, and the serotonin transporters (using CHO cells), using [^3H]nisoxetine (1 nM), [^3H]BTCP (4 nM), and [^3H]imipramine (2 nM) as ligands and desipramine (1 µM), BTCP (10 µM), and imipramine (10 µM) as non-specific agents, respectively (with scintillation counting as detection method).
# hNET [3] = molecular target: T1, hNET; assay: hNET radioligand binding assay (CHO cells, [3H]nisoxetine)
# Description: as §1
# [4] = 15.0, 30.0 and 45.0 mg/kg i.p. coadministered with 1.0 mg/kg TBZ
# T1 sequence (P23975 whole entry): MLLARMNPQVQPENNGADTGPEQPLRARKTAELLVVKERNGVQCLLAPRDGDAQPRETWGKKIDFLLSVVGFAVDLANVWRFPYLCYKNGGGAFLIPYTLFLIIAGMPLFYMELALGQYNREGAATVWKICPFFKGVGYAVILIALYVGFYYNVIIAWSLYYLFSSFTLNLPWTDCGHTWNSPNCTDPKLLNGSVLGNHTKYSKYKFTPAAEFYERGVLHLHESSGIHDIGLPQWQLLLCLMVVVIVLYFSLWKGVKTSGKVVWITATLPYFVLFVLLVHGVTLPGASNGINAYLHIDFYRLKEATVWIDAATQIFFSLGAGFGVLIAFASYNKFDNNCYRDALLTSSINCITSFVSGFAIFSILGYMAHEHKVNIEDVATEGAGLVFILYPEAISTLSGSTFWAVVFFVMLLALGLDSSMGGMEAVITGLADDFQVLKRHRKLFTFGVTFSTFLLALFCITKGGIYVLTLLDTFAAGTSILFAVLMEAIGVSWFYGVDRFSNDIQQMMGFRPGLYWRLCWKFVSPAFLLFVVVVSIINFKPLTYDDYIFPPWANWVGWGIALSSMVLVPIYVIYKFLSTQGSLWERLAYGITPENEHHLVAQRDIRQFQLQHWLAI
# T2 sequence (P31645 whole entry): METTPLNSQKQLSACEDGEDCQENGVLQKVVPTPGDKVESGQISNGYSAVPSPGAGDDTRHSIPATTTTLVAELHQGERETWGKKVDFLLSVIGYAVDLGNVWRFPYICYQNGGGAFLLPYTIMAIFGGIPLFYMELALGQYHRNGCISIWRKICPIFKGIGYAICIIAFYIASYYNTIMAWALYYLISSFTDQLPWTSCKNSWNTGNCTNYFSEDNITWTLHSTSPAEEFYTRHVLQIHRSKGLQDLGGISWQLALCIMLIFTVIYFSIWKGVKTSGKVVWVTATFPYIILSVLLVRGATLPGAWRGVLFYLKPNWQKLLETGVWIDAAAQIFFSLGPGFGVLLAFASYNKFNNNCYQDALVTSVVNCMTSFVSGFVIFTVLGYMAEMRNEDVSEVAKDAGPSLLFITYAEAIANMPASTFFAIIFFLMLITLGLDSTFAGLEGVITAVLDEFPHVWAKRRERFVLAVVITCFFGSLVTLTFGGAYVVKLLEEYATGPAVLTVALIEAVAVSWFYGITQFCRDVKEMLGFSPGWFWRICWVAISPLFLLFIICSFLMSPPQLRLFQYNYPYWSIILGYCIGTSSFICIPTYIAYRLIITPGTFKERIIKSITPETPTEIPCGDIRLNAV
compound,measurement,setting,value
"[O-][S@@+](Cc1cncs1)C(c1cccc(Cl)c1)c1cccc(Cl)c1 [(S)-MK-26, (S)-5-(((B(3-chlorophenyl)methyl)sulphinyl)methyl)thiazole]",effect on TBZ-induced change in chow intake,[1]; [4],significantly attenuated the effects of TBZ
same,effect on TBZ-induced change in lever pressing,[1]; [4],significantly attenuated the effects of TBZ
same,potency in effort-based choice tests compared to other modafinil analogs,[1]; comparison with earlier studies,"lower potency than (S,S)-CE-158"
same,reversal of TBZ effects on lever pressing and chow intake,[1]; low-dose progression 3.75 and 7.5 mg/kg i.p. with 1.0 mg/kg TBZ,failed to reverse the effects of TBZ
same,IC50,hNET [2],63.5 µM
same,binding to SERT,hSERT,trifling bindings
same,binding to NET,hNET [3],trifling bindings
